The test addresses T1, STAT6 (endogenous, HiBiT-tagged) in HeLa LgBiT clone 4.14 cells (Homo sapiens, UniProt P42226).
T1 construct: These cells express endogenous STAT6; host or cells: HeLa LgBiT clone 4.14
T1 sequence (P42226 1-847): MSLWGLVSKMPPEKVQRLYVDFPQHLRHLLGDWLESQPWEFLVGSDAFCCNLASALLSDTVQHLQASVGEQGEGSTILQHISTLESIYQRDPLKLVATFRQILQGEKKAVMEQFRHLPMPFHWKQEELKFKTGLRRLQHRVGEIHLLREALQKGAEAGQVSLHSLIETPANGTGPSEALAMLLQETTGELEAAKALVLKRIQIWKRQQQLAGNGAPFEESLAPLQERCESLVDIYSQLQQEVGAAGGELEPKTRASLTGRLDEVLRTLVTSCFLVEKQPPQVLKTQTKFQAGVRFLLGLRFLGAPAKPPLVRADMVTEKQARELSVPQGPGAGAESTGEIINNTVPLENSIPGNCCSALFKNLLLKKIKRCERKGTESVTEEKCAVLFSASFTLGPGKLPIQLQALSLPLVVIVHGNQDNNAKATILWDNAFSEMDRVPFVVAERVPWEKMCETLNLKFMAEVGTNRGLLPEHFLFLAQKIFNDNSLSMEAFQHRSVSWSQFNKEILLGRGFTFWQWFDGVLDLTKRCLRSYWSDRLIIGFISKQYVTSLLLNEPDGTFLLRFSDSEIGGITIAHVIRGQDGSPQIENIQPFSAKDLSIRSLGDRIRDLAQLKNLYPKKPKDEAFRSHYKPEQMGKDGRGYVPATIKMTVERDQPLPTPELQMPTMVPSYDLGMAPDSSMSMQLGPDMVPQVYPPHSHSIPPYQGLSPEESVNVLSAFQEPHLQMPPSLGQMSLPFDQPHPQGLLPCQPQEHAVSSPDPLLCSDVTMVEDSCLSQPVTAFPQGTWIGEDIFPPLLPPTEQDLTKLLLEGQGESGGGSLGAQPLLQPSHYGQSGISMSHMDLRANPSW
The test can be described thus: STAT6 Degrader Assay (HiBiT based, HeLa LgBiT clone 4.14 cells, luminescence, DC50). The note with it: geometric mean; for DC50: DC50 provided for test compounds with >80% Emax, read-out: STAT6 degradation DC50; for Emax: Emax provided for test compounds with <80% Emax (and 2c15), read-out: STAT6 degradation Emax. The format is cell-based. In outline:
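Remaining STAT6 is read as NanoBiT luminescence after 0.5 h with Nano-Glo, in HeLa LgBiT clone 4.14 cells expressing endogenous HiBiT-tagged STAT6, following 4-24 h compound incubation at 37 °C. Full degradation is set by 50 µM terfenadine, which kills the cells; degradation plotted against log compound concentration.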

Where only a bound is given, the exact number is not on record here.

On to `Cn1c(CN2CCC(c3ccc(C(=O)N4CCC(CN5CCC(N6CCC(c7ccc(NC8CCC(=O)NC8=O)cc7F)CC6)C(F)(F)C5)CC4)cc3)CC2)cc2c(-c3ccc(N)nc3)ccnc21` (stereo not drawn) [Example 2h2, 3-((4-(1′-((1-(4-(1-((4-(6-aminopyridin-3-yl)-1-methyl-1H-pyrrolo[2,3-b]pyridin-2-yl)-methyl)piperidin-4-yl)benzoyl)piperidin-4-yl)methyl)-3′, 3′-difluoro-[1,4′-bipiperidin]-4-yl)-3-fluoro-phenyl)amino)piperidine-2,6-dione], for which the DC50 turned out to be 133 nM.
Consider `Cn1c(CN2CCC(c3ccc(C(=O)N4CCC(CN5CCN(c6ccc(NC7CCC(=O)NC7=O)nc6)CC5)CC4)cc3)CC2)cc2c(-c3ccc4[nH]ncc4c3)ccnc21` (stereo not drawn) [Example 2t3, 3-((5-(4-((1-(4-(1-((4-(1H-indazol-5-yl)-1-methyl-1H-pyrrolo[2,3-b]pyridin-2-yl)methyl)piperidin-4-yl)benzoyl)piperidin-4-yl)methyl)piperazin-1-yl)pyridin-2-yl)amino)piperidine-2,6-dione], for which the Emax is 40 to 50%.
Same read-out and setting: with `Cc1cc(C(=O)N2CCC(CN3CCN(c4ccc(NC5CCC(=O)NC5=O)cc4F)CC3)CC2)ccc1C1=CCN(Cc2cc3c(-c4ccc(N)nc4)ccnc3n2C)CC1` (stereo not drawn) [Example 2c9, 3-((4-(4-((1-(4-(1-((4-(6-aminopyridin-3-yl)-1-methyl-1H-pyrrolo[2,3-b]pyridin-2-yl)methyl)-1,2,3,6-tetrahydropyridin-4-yl)-3-methylbenzoyl)piperidin-4-yl)methyl)piperazin-1-yl)-3-fluorophenyl)-amino)piperidine-2,6-dione] the figure was 50 to 60%.
With `C[C@@H](c1cc2c(-c3ccc4[nH]ncc4c3)ccnc2n1C)N1CCC(c2ccc(C(=O)N3CCC(CN4CCN(c5ccc(NC6CCC(=O)NC6=O)c(F)n5)CC4)CC3)cc2)CC1` (stereo partly drawn) [Example 2n7, 3-((6-(4-((1-(4-(1-((S)-1-(4-(1H-indazol-5-yl)-1-methyl-1H-pyrrolo[2,3-b]pyridin-2-yl)ethyl)-piperidin-4-yl)benzoyl)piperidin-4-yl)methyl)piperazin-1-yl)-2-fluoropyridin-3-yl)amino)piperidine-2,6-dione], the DC50 is 18 nM.
Same read-out and setting: to `CNc1ccc(-c2ccnc3c2cc([C@H](C)N2CCC(c4ccc(C(=O)N5CCC(CN6CCN(c7ccc(NC8CCC(=O)NC8=O)c(F)n7)CC6)CC5)cc4)CC2)n3C)cn1` (stereo partly drawn) [Example 2n14, 3-((2-fluoro-6-(4-((1-(4-(1-((S)-1-(1-methyl-4-(6-(methylamino)pyridin-3-yl)-1H-pyrrolo[2,3-b]pyridin-2-yl)ethyl)piperidin-4-yl)benzoyl)piperidin-4-yl)methyl)piperazin-1-yl)pyridin-3-yl)amino)piperidine-2,6-dione] belongs 49 nM.
Consider `Cn1c(CN2CCC(c3ccc(C(=O)N4CCC(CN5CCN(C(=O)c6ccc(NC7CCC(=O)NC7=O)cc6F)CC5)CC4)cc3)CC2)cc2c(-c3ccc(N)nc3)ccnc21` (stereo not drawn) [Example 2e2, 3-((4-(4-((1-(4-(1-((4-(6-aminopyridin-3-yl)-1-methyl-1H-pyrrolo[2,3-b]pyridin-2-yl)methyl)-piperidin-4-yl)benzoyl)piperidin-4-yl)methyl)piperazine-1-carbonyl)-3-fluorophenyl)amino)piperidine-2,6-dione], for which the maximal response (Emax) is less than 20%.
Same read-out and setting: with `Cn1c(CN2CCC(c3ccc(C(=O)N4CCC(CN5CCN(Cc6ccc(NC7CCC(=O)NC7=O)cc6)CC5)CC4)cc3)CC2)cc2c(-c3ccc4[nH]ncc4c3)ccnc21` (stereo not drawn) [Example 2s1, 3-((4-((4-((1-(4-(1-((4-(1H-indazol-5-yl)-1-methyl-1H-pyrrolo[2,3-b]pyridin-2-yl)methyl)-piperidin-4-yl)benzoyl)piperidin-4-yl)methyl)piperazin-1-yl)methyl)phenyl)amino)piperidine-2,6-dione] the figure was 60 to 70%.
As to `Cn1c(CN2CCC(c3ccc(C(=O)N4CCC(CN5CCN(c6ncc(NC7CCC(=O)NC7=O)cn6)CC5)CC4)cc3)CC2)cc2c(-c3ccc4[nH]ncc4c3)ccnc21` (stereo not drawn) [Example 2k1, 3-((2-(4-((1-(4-(1-((4-(1H-indazol-5-yl)-1-methyl-1H-pyrrolo[2,3-b]pyridin-2-yl)methyl)-piperidin-4-yl)benzoyl)piperidin-4-yl)methyl)piperazin-1-yl)pyrimidin-5-yl)amino)piperidine-2,6-dione], the DC50 is 28.8 nM.
For `C[C@H](c1cc2c(-c3ccc(N)nc3)ccnc2n1C)N1CCC(c2ccc(C(=O)N3CCC(CN4CCN(c5ccc(NC6CCC(=O)NC6=O)cc5F)CC4)CC3)cc2)CC1` (stereo partly drawn) [Example 2c13, 3-((4-(4-((1-(4-(1-((R)-1-(4-(6-aminopyridin-3-yl)-1-methyl-1H-pyrrolo[2,3-b]pyridin-2-yl)ethyl)-piperidin-4-yl)benzoyl)piperidin-4-yl)methyl)piperazin-1-yl)-3-fluorophenyl)amino)piperidine-2,6-dione], the Emax was less than 20%.
Take `Cn1c(CN2CCC(c3ccc(C(=O)N4CCC(CN5CCC(N6CCC(c7ccc(NC8CCC(=O)NC8=O)cc7F)CC6)C(F)(F)C5)CC4)cc3)CC2)cc2c(-c3ccc4[nH]ncc4c3)ccnc21` (stereo not drawn) [Example 2h1, 3-((4-(1′-((1-(4-(1-((4-(1H-indazol-5-yl)-1-methyl-1H-pyrrolo[2,3-b]pyridin-2-yl)methyl)-piperidin-4-yl)benzoyl)piperidin-4-yl)methyl)-3′, 3′-difluoro-[1,4′-bipiperidin]-4-yl)-3-fluorophenyl)-amino)piperidine-2,6-dione]: the DC50 came out at 66.3 nM.
Turning to `Cn1c(CN2CCC(c3ccc(C(=O)N4CCC(CN5CCN(c6ccc(NC7CCC(=O)NC7=O)c(F)n6)CC5)CC4)cc3)CC2)cc2c(-c3ccc(N)nc3)ccnc21` (stereo not drawn) [Example 2n4, 3-((6-(4-((1-(4-(1-((4-(6-aminopyridin-3-yl)-1-methyl-1H-pyrrolo[2,3-b]pyridin-2-yl)methyl)-piperidin-4-yl)benzoyl)piperidin-4-yl)methyl)piperazin-1-yl)-2-fluoropyridin-3-yl)amino)piperidine-2,6-dione], the Emax lay in the range of 70 to 80%.
Still for that read-out and setting: with `Cn1c(CN2CCC(c3ccc(C(=O)N4CCC(CN5CCN(c6ncc(NC7CCC(=O)NC7=O)cc6F)CC5)CC4)cc3)CC2)cc2c(-c3ccc(N)nc3)ccnc21` (stereo not drawn) [Example 2n5, 3-((6-(4-((1-(4-(1-((4-(6-aminopyridin-3-yl)-1-methyl-1H-pyrrolo[2,3-b]pyridin-2-yl)methyl)-piperidin-4-yl)benzoyl)piperidin-4-yl)methyl)piperazin-1-yl)-5-fluoropyridin-3-yl)amino)piperidine-2,6-dione] the figure was 60 to 70%; with `COCc1nc2cc(-c3ccnc4c3cc(CN3CCC(c5ccc(C(=O)N6CCC(CN7CCN(c8ccc(NC9CCC(=O)NC9=O)c(F)c8)CC7)CC6)cc5)CC3)n4C)ccc2[nH]1` (stereo not drawn) [Example 2b3, 3-((2-fluoro-4-(4-((1-(4-(1-((4-(2-(methoxymethyl)-1H-benzo[d]imidazol-5-yl)-1-methyl-1H-pyrrolo[2,3-b]pyridin-2-yl)methyl)piperidin-4-yl)benzoyl)piperidin-4-yl)methyl)piperazin-1-yl)phenyl)amino)piperidine-2,6-dione], 70 to 80%; with `Cc1cc(C(=O)N2CCC(CN3CCN(c4ccc(NC5CCC(=O)NC5=O)cc4F)CC3)CC2)cc(C)c1C1=CCN(Cc2cc3c(-c4ccc(N)nc4)ccnc3n2C)CC1` (stereo not drawn) [Example 2c15, 3-((4-(4-((1-(4-(1-((4-(6-aminopyridin-3-yl)-1-methyl-1H-pyrrolo[2,3-b]pyridin-2-yl)methyl)-1,2,3,6-tetrahydropyridin-4-yl)-3,5-dimethylbenzoyl)piperidin-4-yl)methyl)piperazin-1-yl)-3-fluorophenyl)amino)piperidine-2,6-dione], 80 to 90%.
As for `COc1cc(C2CCN(Cc3cc4n(n3)CCN(C(=O)c3ccc(C5CCN([C@@H](C)c6cc7c(-c8ccc(N)nc8)ccnc7n6C)CC5)cc3)C4)CC2)ccc1NC1CCC(=O)NC1=O` (stereo partly drawn) [Example 2c44, 3-((4-(1-((5-(4-(1-((S)-1-(4-(6-aminopyridin-3-yl)-1-methyl-1H-pyrrolo[2,3-b]pyridin-2-yl)ethyl)piperidin-4-yl)benzoyl)-4,5,6,7-tetrahydropyrazolo[1,5-a]pyrazin-2-yl)methyl)piperidin-4-yl)-2-methoxyphenyl)amino)piperidine-2,6-dione], the DC50 was 0.7 nM.

As a reminder, the DC50 is the midpoint of the concentration-degradation curve. By Emax is commonly meant the size of the effect at its maximum, as opposed to the concentration needed.

For the origin of these results see patent publication US20260014147A1, “STAT6 DEGRADERS” (Gilead Sciences, Inc., priority 2024, published 2026).
